For six compounds, MIC, HC10 and HC50 results are on record in ChEMBL document CHEMBL5608163, “Structure modification of anoplin for fighting resistant bacteria” (Eur J Med Chem, 2024).

Values after ≈ are worked out from the molar mass of the structure shown. Square brackets hold non-standard residues; d marks the D form. Peptide text beside a SMILES is read from it. * marks the point of attachment. Pentadecanoyl = CCCCCCCCCCCCCCC(=O)*; NMeI = CC[C@H](C)[C@H](NC)C(=O)O; Tridecanoyl = CCCCCCCCCCCCC(=O)*; NMeL = CN[C@@H](CC(C)C)C(=O)O; Undecanoyl = CCCCCCCCCCC(=O)*; Nonanoyl = CCCCCCCCC(=O)*

Data set [1] has as its system Staphylococcus aureus. The experiment in a line: Antibacterial activity against Staphylococcus aureus ATCC 25923 assessed as reduction in bacterial growth incubated for 18 to 20 hrs by Mueller Hinton broth dilution method. The following applies: time 18-20 hrs. It is filed as functional.
The test system of data set [2] is Pseudomonas aeruginosa. The experiment in a line: Antibacterial activity against Pseudomonas aeruginosa ATCC 27853 assessed as reduction in bacterial growth incubated for 18 to 20 hrs by Mueller Hinton broth dilution method. In kind it is functional. The following applies: time 18-20 hrs.
The test system of data set [3] is Bacillus subtilis. Briefly: Antibacterial activity against Bacillus subtilis ATCC 23857 assessed as reduction in bacterial growth incubated for 18 to 20 hrs by Mueller Hinton broth dilution method. It is filed as functional. The following applies: time 18-20 hrs.
The next data set concerns Erythrocyte. Briefly: (§1) Hemolytic activity in mouse Red blood cells incubated for 1 hr by microplate reader assay. The conditions noted are these: erythrocyte, 1 h. In kind it is toxicity, cell-based.
Data set [4] concerns Escherichia coli. The experiment in a line: Antibacterial activity against Escherichia coli ATCC 25922 assessed as reduction in bacterial growth incubated for 18 to 20 hrs by Mueller Hinton broth dilution method. In kind it is functional. The following applies: time 18-20 hrs.
The next data set deals with Klebsiella pneumoniae. The experiment in a line: Antibacterial activity against Klebsiella pneumoniae ATCC 700603 assessed as reduction in bacterial cell growth measured for 18 hrs by Mueller-Hinton broth based two-fold serial dilution method. It is filed as functional.
Data set [5] deals with Escherichia coli. The experiment in a line: Antibacterial activity against Escherichia coli ATCC 25922 assessed as reduction in bacterial cell growth measured for 18 hrs by Mueller-Hinton broth based two-fold serial dilution method. It is filed as functional.
The test system of data set [6] is Bacillus subtilis. The experiment in a line: Antibacterial activity against Bacillus subtilis ATCC 23857 assessed as reduction in bacterial cell growth measured for 18 hrs by Mueller-Hinton broth based two-fold serial dilution method. In kind it is functional.
Data set [7] can be described thus: as §1. In kind it is toxicity, cell-based, Erythrocyte. The following applies: red blood cells.
For data set [8], the system named is Pseudomonas aeruginosa. The experiment in a line: Antibacterial activity against Pseudomonas aeruginosa ATCC 27853 assessed as reduction in bacterial cell growth measured for 18 hrs by Mueller-Hinton broth based two-fold serial dilution method. It is filed as functional.
In data set [9] the test system is Staphylococcus aureus. The experiment in a line: Antibacterial activity against Staphylococcus aureus ATCC 25923 assessed as reduction in bacterial cell growth measured for 18 hrs by Mueller-Hinton broth based two-fold serial dilution method. It is filed as functional.

On to `CC(C)C[C@@H](NC(=O)[C@@H](CC(C)C)NC(=O)[C@@H](CCCCN)NC(=O)[C@@H](CCCCN)NC(=O)[C@@H](Cc1c[nH]c2ccccc12)NC(=O)[C@@H](CCCNC(=N)N)NC(=O)[C@@H](CCCCN)NC(=O)[C@@H](CC(C)C)NC(=O)[C@@H](CC(C)C)NC(=O)[C@H](N)Cc1c[nH]c2ccccc12)C(N)=O`, for which the MIC with Staphylococcus aureus [1] came out at 16 µM (≈ 22.1 µg/mL); in the data set with Pseudomonas aeruginosa [2], 8 µM (≈ 11.1 µg/mL); in the data set with Bacillus subtilis [3], 4 µM (≈ 5.53 µg/mL); in the data set on Escherichia coli [4], 8 µM (≈ 11.1 µg/mL). This compound had an HC10 in the data set with Erythrocyte of over 200 µM.

Turning to `CC(C)C[C@@H](NC(=O)[C@@H](CC(C)C)NC(=O)[C@@H](CCCCN)NC(=O)[C@@H](CCCCN)NC(=O)[C@@H](Cc1c[nH]c2ccccc12)NC(=O)[C@@H](Cc1c[nH]c2ccccc12)NC(=O)[C@@H](CCCCN)NC(=O)[C@@H](CC(C)C)NC(=O)[C@@H](CC(C)C)NC(=O)[C@H](N)CCCCN)C(N)=O` (H-[dK][dL][dL][dK][dW][dW][dK][dK][dL][dL]-NH2), the MIC with Staphylococcus aureus [1] was determined as 8 µM (≈ 10.8 µg/mL); with Pseudomonas aeruginosa [2], 8 µM (≈ 10.8 µg/mL); with Bacillus subtilis [3] it was 4 µM (≈ 5.42 µg/mL); in the data set on Escherichia coli [4], 64 µM (≈ 86.7 µg/mL). The compound further showed an HC10 in the data set with Erythrocyte of over 200 µM.

For `CCCCCCCCC(=O)NCC(=O)N[C@@H](CC(C)C)C(=O)N(C)[C@@H](CC(C)C)C(=O)N[C@@H](CCCCN)C(=O)N[C@@H](CCCNC(=N)N)C(=O)N(C)[C@H](C(=O)N[C@@H](CCCCN)C(=O)N[C@H](C(=O)N[C@@H](CC(C)C)C(=O)N[C@@H](CC(C)C)C(N)=O)[C@@H](C)O)[C@@H](C)CC` (Nonanoyl-GL[NMeL]KR[NMeI]KTLL-NH2), the MIC is over 128 µM in the data set with Klebsiella pneumoniae; 128 µM (≈ 169 µg/mL) in the data set with Escherichia coli [5]; 8 µM (≈ 10.6 µg/mL) in the data set on Bacillus subtilis [6]; 32 µM (≈ 42.3 µg/mL) in the data set on Pseudomonas aeruginosa [8]; 128 µM (≈ 169 µg/mL) in the data set with Staphylococcus aureus [9]. Besides, the HC50 at 1 h in [7] is over 256 µM.

With `CCCCCCCCCCCCCCC(=O)NCC(=O)N[C@@H](CC(C)C)C(=O)N(C)[C@@H](CC(C)C)C(=O)N[C@@H](CCCCN)C(=O)N[C@@H](CCCNC(=N)N)C(=O)N(C)[C@H](C(=O)N[C@@H](CCCCN)C(=O)N[C@H](C(=O)N[C@@H](CC(C)C)C(=O)N[C@@H](CC(C)C)C(N)=O)[C@@H](C)O)[C@@H](C)CC` (Pentadecanoyl-GL[NMeL]KR[NMeI]KTLL-NH2), the MIC in the data set with Klebsiella pneumoniae came to 16 µM (≈ 22.5 µg/mL); in the data set on Escherichia coli [5], 16 µM (≈ 22.5 µg/mL); with Bacillus subtilis [6], 4 µM (≈ 5.62 µg/mL); with Pseudomonas aeruginosa [8], 16 µM (≈ 22.5 µg/mL); in the data set with Staphylococcus aureus [9] it was 8 µM (≈ 11.2 µg/mL). Moreover, the HC50 at 1 h in data set [7] was determined as 64 µM.

Turning to `CCCCCCCCCCCCC(=O)NCC(=O)N[C@@H](CC(C)C)C(=O)N(C)[C@@H](CC(C)C)C(=O)N[C@@H](CCCCN)C(=O)N[C@@H](CCCNC(=N)N)C(=O)N(C)[C@H](C(=O)N[C@@H](CCCCN)C(=O)N[C@H](C(=O)N[C@@H](CC(C)C)C(=O)N[C@@H](CC(C)C)C(N)=O)[C@@H](C)O)[C@@H](C)CC` (Tridecanoyl-GL[NMeL]KR[NMeI]KTLL-NH2), the MIC was 32 µM (≈ 44.1 µg/mL) in the data set on Klebsiella pneumoniae; 8 µM (≈ 11 µg/mL) in the data set on Escherichia coli [5]; 4 µM (≈ 5.51 µg/mL) in the data set with Bacillus subtilis [6]; 8 µM (≈ 11 µg/mL) in the data set with Pseudomonas aeruginosa [8]; 4 µM (≈ 5.51 µg/mL) in the data set on Staphylococcus aureus [9]. This compound came in with an HC50 at 1 h in data set [7] of 64 µM.

For the compound `CCCCCCCCCCC(=O)NCC(=O)N[C@@H](CC(C)C)C(=O)N(C)[C@@H](CC(C)C)C(=O)N[C@@H](CCCCN)C(=O)N[C@@H](CCCNC(=N)N)C(=O)N(C)[C@H](C(=O)N[C@@H](CCCCN)C(=O)N[C@H](C(=O)N[C@@H](CC(C)C)C(=O)N[C@@H](CC(C)C)C(N)=O)[C@@H](C)O)[C@@H](C)CC` (Undecanoyl-GL[NMeL]KR[NMeI]KTLL-NH2), the MIC in the data set on Klebsiella pneumoniae came to 64 µM (≈ 86.4 µg/mL); with Escherichia coli [5], 16 µM (≈ 21.6 µg/mL); with Bacillus subtilis [6] it was 4 µM (≈ 5.4 µg/mL); with Pseudomonas aeruginosa [8] it was 8 µM (≈ 10.8 µg/mL); with Staphylococcus aureus [9], 16 µM (≈ 21.6 µg/mL). This compound came in with an HC50 at 1 h in [7] of over 256 µM.
